Reference: patent US6486161B1, “Use of rifamycin derivative for treating mastitis in a domestic animal” (priority 2000, dated 2002)
≈ marks a conversion by molar mass, not a printed value. Like-named read-outs stand apart in the source and are kept apart here.

Key:
[1] = system: Staphylococcus aureus 9203; test: S. aureus intracellular killing assay in bovine PMN; format: cell-based; conditions: overnight incubation (18 to 21 hours)
Protocol: The therapeutic effect of the rifamycin derivative (1) was determined by S. aureus intracellular killing assay in bovine polymorphonuclear neutrophil (PMN).
The procedure for PMN isolation was as described in Carlton et al. (Proc. Soc. Exp. Biol. Med. 142: 853-858 (1973)).
Bovine blood collected by venipuncture in 50-ml syringes containing 1.5% EDTA (pH 6.8) was centrifuged at 1,000×g for 25 min. The plasma-buffer layer and the top few millileters were discarded. The packed erythrocyte fraction was pooled in 0.8% NaCl-phosphate buffer (pH 6.8) and 10 ml was placed in 20 ml of sterile water for 40 seconds to lyse the erythrocytes. Immediately thereafter, 10 ml of a 2.7% NaCl-phosphate buffer solution was added to restore isotonicity. The leukocytes, consisting of ≦84% PMNs, were washed twice and suspended in HBSS. PMNs were adjusted to a final concentration of 10^7 cells per ml.
The intracellular killing assay was carried out as described in Sanchez et al. (Antimicrobial Agents and Chemotherapy 29(4): 634-638 (1986)).
Bovine blood PMNs and bacteria (1:1) were suspended in HBSS containing 10% heterologous bovine serum. The mixture was incubated for 90 minutes at 37° C. in Erlenmeyer flasks with rotational mixing at 110 rpm. Lysostaphin (5 μg/ml) was added to the mixture for the final 15 minutes of incubation. The infected PMNs were washed 3 times by low-speed centrifugation and suspended in HBSS. Cells were pipetted (1 ml) into each well of a six-well cluster dish (Bellco Glass, Inc., Vineland, N.J.) at 5×10^6 PMNs per well. PMNs were allowed to attach and form a monolayer for 10 minutes at 37° C. The supernatant fluid with unattached cells was discarded, and 2 ml of fresh HBSS was added to each well. The rifamycin derivatives to be tested were then added to the wells (one six-well plate per drug). These derivatives were dissolved in dimethylsulfoxide, and then diluted in HBSS to final solvent concentrations of 0.01% (vol/vol) or less.
After overnight incubation (18 to 21 hours) at 37° C. with 1% CO2, lysostaphin (5 μg/ml) was added to each well for 15 min (at 37° C.) to kill extracellular bacteria. The monolayers were washed with HBSS, and the cells were lysed by addition of 1 ml of water to each well. The number of viable bacteria was then estimated by plate counts on brain heart infusion agar. […] The results are shown in Table 2, wherein R is the alkyl group in the rifamycin derivative (1).

[2] = system: Staphylococcus aureus 6097; test: Dose titration in the mouse mastitis model (S. aureus-induced murine mastitis); format: in vivo; conditions: mice, read 6 days after infection; for ED (mg/kg/d) Mastitis: 50% of mice without mastitis; for ED (mg/kg/d) Culture: 50% of mice with no bacteria cultured from gland
[3] = Oral toxicity in mice; format: in vivo; conditions: orally administered to mice, 1,000 mg/kg
[4] = system: Staphylococcus aureus 9203; test: MIC against the strain of the intracellular killing assay; format: cell-based
[5] = system: S. aureus 30857, a rifampin-resistant isolate; test: MIC, microbroth dilution, strain 30857; format: cell-based, Staphylococcus aureus; conditions: strain 30857
Protocol: (§1) Four S. aureus strains were used: S. aureus 30857, a rifampin-resistant isolate: S. aureus 6097, a strain used in the mouse mastitis test and originally from a case of gangrenous bovine mastitis; S. aureus B83-1, derived from the Newbould 305 strain; and S. aureus ATCC 29213, the in vitro control stain recommended by NCCLS.
(§2) All S. aureus strains were maintained on 3 mm glass beads immersed in trypticase soy broth (BBL Microbiology Systems, Cockeysville, Md.) with 10% glycerol and held at −70° C. until revived. Prior to testing, the strains were subcultured on tryptose blood agar base (Difco, Detroit, Mich.) supplemented with 5% sheep blood for 24 hours at 35° C.
(§3) These compounds were dissolved in 95% ethanol, a solution which was then diluted to 10% ethanol with sterile distilled water. Further dilutions were conducted in water.
(§4) MIC (Minimum Inhibitory Concentration) determinations were performed using the microbroth dilution method. (National Committee for Clinical Laboratory Standards, 1990 Approved Standard […]. Methods for dilution antimicrobial susceptibility tests for bacteria that grow aerobically, 3rd edition. National Committee for Clinical Laboratory Standards, Villanova, Pa.) The results are shown in Table 3, wherein R is the alkyl group R in the rifamycin derivative (1).

[6] = system: S. aureus 6097; test: MIC, microbroth dilution, strain 6097; format: cell-based, Staphylococcus aureus
Protocol: as §1, §2, §3, §4

[7] = system: S. aureus B83-1; test: MIC, microbroth dilution, strain B83-1; format: cell-based, Staphylococcus aureus
Protocol: as §1, §2, §3, §4

[8] = system: S. aureus ATCC 29213; test: MIC, microbroth dilution, strain ATCC 29213; format: cell-based, Staphylococcus aureus
Protocol: as §1, §2, §3, §4

[9] = system: S. aureus 30857, a rifampin-resistant isolate; format: cell-based, Staphylococcus aureus; conditions: strain 30857
Protocol: (§5) The mutation frequency for development of resistance to the rifamycin derivative (1) as compared to rifampin was determined with selected Staphylococcus aureus strains.
as §1, §2, §3
(§6) The mutation frequency for development of resistance to the compounds tested was determined by the following method. A single colony of each strain was removed from the surface of a blood agar plate with a cotton swab, suspended in 5 ml of Mueller-Hinton broth (BBL), and streaked on the entire surface of five Mueller-Hinton agar plates. The plates were incubated overnight under aerobic conditions at 35° C., growth was removed from the agar using a sterile cotton swab, and the bacteria were suspended in 10 ml physiological saline. This bacterial suspension was the inoculum for the mutation frequency determinations. Standard plate counts were performed on the inoculum by performing serial dilutions and plating a 0.1 ml aliquot on the surface of ten Mueller-Hinton agar plates at each concentration. The plates were incubated for 18-24 hours at 35° C. under aerobic conditions and colony counts performed. Mean bacterial counts were calculated for the inoculum with each strain.
(§7) A 0.1 ml aliquot of the inoculum was then used to inoculate the entire surface of ten plates each containing 1, 10, and 100 μg/ml of the test antimicrobial agents. The plates were incubated for 18-24 hours at 35° C. under aerobic conditions and colony counts performed. Mean bacterial counts were calculated for each antimicrobial concentration and the mutation frequency calculated by dividing the number of colonies which grew on the drug containing media by the inoculum size.

[10] = system: S. aureus 6097; test: Mutation frequency for resistance, strain 6097; format: cell-based, Staphylococcus aureus
Protocol: as §5, §1, §2, §3, §6, §7

[11] = system: S. aureus B83-1; test: Mutation frequency for resistance, strain B83-1; format: cell-based, Staphylococcus aureus
Protocol: as §5, §1, §2, §3, §6, §7

[12] = system: S. aureus ATCC 29213; test: Mutation frequency for resistance, strain ATCC 29213; format: cell-based, Staphylococcus aureus
Protocol: as §5, §1, §2, §3, §6, §7

[13] = route IMM (intramammary), 1 hour after infection

Row | Structure (SMILES) | % reduction ([1]; 100X MIC) [%] | CFU/ml ISD (×10^3) ([1]; 100X MIC) | ED (mg/kg/d) Mastitis [2, 13] [mg/kg/day] | ED (mg/kg/d) Culture ([2]; route IMM (intramammary)) [mg/kg/day] | ED (mg/kg/d) Culture ([2]; route SC (subcutaneous)) [mg/kg/day] | ED (mg/kg/d) Mastitis ([2]; route SC (subcutaneous)) [mg/kg/day] | toxicity [3] | % reduction ([1]; 1X MIC) [%] | CFU/ml ISD (×10^3) ([1]; 1X MIC) | MIC [4] | other results
1 | Cc1onc(-c2ccccc2Cl)c1C(=O)N[C@@H]1C(=O)N2[C@@H]1SC(C)(C)[C@@H]2C(=O)O [Cloxacillin, reference compound] | 0.0 | 5.9 ± 1.9 CFU/ml (×10^3) |  |  |  |  |  |  |  |  | 
2 | COC1/C=C/OC2(C)Oc3c(C)c(O)c4c(=O)c(c5oc6cc(N7CCN(CC(C)C)CC7)cc(O)c6nc-5c4c3C2=O)NC(=O)/C(C)=C\C=C\C(C)C(O)C(C)C(O)C(C)C(OC(C)=O)C1C (stereo not shown) [R = isobutyl] | 100 | 0.0 CFU/ml (×10^3) | 0.3 | 0.3 | 3.5 | 3.5 | did not show any toxicity | 95.0 | 0.15 ± 0.06 CFU/ml (×10^3) | ≦0.03 μg/ml | MIC [5]: >4000 ng/mL; MIC [6]: 0.98 ng/mL (≈ 1.04 nM); MIC [7]: 1.9 ng/mL (≈ 2.02 nM); MIC [8]: 1.9 ng/mL (≈ 2.02 nM); Mutation frequency ([9]; 1 μg/ml): >1.0 × 10^−7; Mutation frequency ([9]; 10 μg/ml): >1.0 × 10^−7; Mutation frequency ([9]; 100 μg/ml): >1.0 × 10^−7; Mutation frequency ([10]; 1 μg/ml): 9.5 × 10^−8; Mutation frequency ([10]; 10 μg/ml): 8.9 × 10^−8; Mutation frequency ([10]; 100 μg/ml): 9.9 × 10^−8; Mutation frequency ([11]; 1 μg/ml): 5.0 × 10^−8; Mutation frequency ([11]; 10 μg/ml): 5.2 × 10^−8; Mutation frequency ([11]; 100 μg/ml): 4.7 × 10^−8; Mutation frequency ([12]; 1 μg/ml): 3.0 × 10^−8; Mutation frequency ([12]; 10 μg/ml): 3.7 × 10^−8; Mutation frequency ([12]; 100 μg/ml): 3.5 × 10^−8
3 | COC1/C=C/OC2(C)Oc3c(C)c(O)c4c(=O)c(c5oc6cc(N7CCN(C8CC8)CC7)cc(O)c6nc-5c4c3C2=O)NC(=O)/C(C)=C\C=C\C(C)C(O)C(C)C(O)C(C)C(OC(C)=O)C1C (stereo not shown) [R = cyclopropyl] |  |  |  |  |  |  | did not show any toxicity |  |  |  | 
4 | CCN1CCN(c2cc(O)c3nc4c5c6c7c(C)c(O)c5c(=O)c(c-4oc3c2)NC(=O)/C(C)=C\C=C\C(C)C(O)C(C)C(O)C(C)C(OC(C)=O)C(C)C(OC)/C=C/OC(C)(O7)C6=O)CC1 (stereo not shown) [R = ethyl] | 100 | 0.0 CFU/ml (×10^3) | 0.3 | 0.4 | 1.5 | 0.4 | did not show any toxicity | 97.0 | 0.09 ± 0.04 CFU/ml (×10^3) | ≦0.03 μg/ml | 
5 | COC1/C=C/OC2(C)Oc3c(C)c(O)c4c(=O)c(c5oc6cc(N7CCN(C(C)C)CC7)cc(O)c6nc-5c4c3C2=O)NC(=O)/C(C)=C\C=C\C(C)C(O)C(C)C(O)C(C)C(OC(C)=O)C1C (stereo not shown) [R = isopropyl] | 100 | 0.0 CFU/ml (×10^3) | 0.2 | 0.2 | 0.6 | 0.4 | did not show any toxicity | 100 | 0.0 CFU/ml (×10^3) | ≦0.03 μg/ml | 
